In patent US8513227B2, “Inhibition of inflammatory cytokine production with tanshinones” (The Feinstein Institute for Medical Research, priority 2006, dated 2013):

What was measured:
HMGB1 [1] = assay: LPS-induced HMGB1 release in RAW 264.7 macrophage cultures (western blot); format: cell-based, murine
Description: Cell culture. […] Rendon-Mitchell et al. 2003). Murine macrophages were pre-cultured in RPMI 1640 medium (Gibco BRL, Grand Island, N.Y.) supplemented with 10% fetal bovine serum (FBS) and 2 mmol/L glutamine. Human peripheral blood mononuclear cells (HuPBMCs) were isolated from the blood of healthy donors (Long Island Blood Bank, Melville, N.Y.) by density gradient centrifugation through Ficoll (Ficoll-Paque PLUS, Pharmacia, Piscataway, N.J.), and cultured in RPMI 1640 supplemented with 10% heat-inactivated human serum/0.2 mM L-glutamine as previously described (Rendon-Mitchell et al. 2003). LPS stimulation. Adherent macrophages or monocytes were gently washed with, and cultured in, serum-free OPTI-MEM I medium two hours before stimulation with bacterial endotoxin (lipopolysaccharide, LPS, E. coli 0111:B4, Sigma-Aldrich). […] Rendon-Mitchell et al. 2003; Wang et al. 1999). HMGB1 western blotting analysis. The levels of HMGB1 in the culture medium or serum were determined by western blotting analysis as previously described (Chen et al. 2004; Rendon-Mitchell et al. 2003; Wang et al. 1999). The relative band intensity was quantified using NIH image 1.59 software to determine HMGB1 levels with reference to standard curves generated with purified HMGB1.

HMGB1 [2] = assay: HMGB1-induced release of TNF and nitric oxide in murine macrophage cultures; format: cell-based; settings: concentrations up to 100 μM, preliminary data
62 cytokines = assay: Cytokine antibody array of LPS-stimulated macrophage culture medium; format: cell-based, murine
Method: Cytokine antibody array. Murine cytokine antibody array (Cat. No. M0308003, RayBiotech Inc., Norcross, Ga., USA), which detects 62 cytokines on one membrane, was used to determine the profile of cytokines in the culture medium following the manufacturer's instructions. Briefly, the membranes were sequentially incubated with equal volume of cell-conditioned culture medium, primary biotin-conjugated antibody, and horseradish peroxidase-conjugated streptavidin. After exposing to X-ray film, the relative signal intensity was determined using the NIH image 1.59 software with reference to the positive controls on the membrane.

[3] = test system: sepsis-induced cardiovascular dysfunction; assay: Sepsis-induced cardiovascular dysfunction in CLP rats (radiolabeled microspheres); format: in vivo, Sprague-Dawley rats; settings: 20 h after CLP
Method: Animal models of endotoxemia and sepsis. This study was approved and performed in accordance with the guidelines for the care and use of laboratory animals at the Feinstein Institute for Medical Research, Manhasset, N.Y. Endotoxemia was induced in Balb/C mice (male, 7-8 weeks) by intraperitoneal injection of bacterial endotoxin (LPS, 15 mg/kg) as previously described (Chen et al. 2005; Wang et al. 1999; Wang et al. 2006). Sepsis was induced in male Balb/C mice (7-8 weeks, 20-25 g) or Sprague-Dawley rats (290-310 g) by cecal ligation and puncture (CLP) as previously described (Wang et al. 2006; Yang et al. 2002b). Herbal components were administered intraperitoneally into mice at indicated doses and time points, and mice were monitored for survival for up to two weeks. In parallel experiments, mice were euthanized to collect blood at 28 h (following two doses of herbal components at −0.5 and +24 h) after endotoxemia, and at 52 h (following two doses of herbal components at +24 and +48 h) after CLP.
Measurement of cardiac output. A radiolabeled microsphere technique was used to measure cardiac output at 20 h after CLP or sham operation as previously described (Yang et al. 2002b). Briefly, a bolus of ^141Ce-labeled microspheres (4.0 μCi, DuPont NEN, Boston, Mass.) was injected into the left ventricle, where it mixed uniformly with the oxygenated blood at the root of the aorta, and subsequently distributed via aortic blood flow to the capillary beds within each organ. The reference blood sample was withdrawn from the femoral arterial catheter (at a rate of 0.7 ml/min) with a pump (Harvard Apparatus, Holliston, Mass.), after which isotonic sodium chloride solution was infused manually to replace the volume of blood lost. At 20 h post CLP, animals were sacrificed to harvest various organs for measurement of radioactivity with an automatic gamma counter (1470 Wizard; Wallac, Gaithersburg, Md.). Cardiac output and organ blood flow were calculated according to the following equations: cardiac output=[(RBF×CT)/Cr]× 1/100 and organ blood flow=[(RBF×Ct)/Cr]× 1/100, where RBF is the reference blood sample withdrawal rate (0.7 ml/min), CT is counts per minute of total injected dose, Ct is counts per minute per gram of tissue, and Cr is counts per minute in the reference blood sample. Stroke volume (SV) and total peripheral resistance (TPR) were calculated as previously described (Yang et al. 2002b).

HMGB1 [4] = assay: LPS-induced HMGB1 release in primary human peripheral blood mononuclear cells; format: cell-based; settings: FIG. 2B
Method: Cell culture. Murine macrophage-like RAW 264.7 cells were obtained from the American Type Culture Collection (ATCC, Rockville, Md.), and primary peritoneal macrophages were isolated from Balb/C mice (male, 7-8 weeks, 20-25 grams) at 2-3 days after intraperitoneal injection of 2 ml thioglycollate broth (4%) as previously described (Chen et al. 2004; Rendon-Mitchell et al. 2003). Murine macrophages were pre-cultured in RPMI 1640 medium (Gibco BRL, Grand Island, N.Y.) supplemented with 10% fetal bovine serum (FBS) and 2 mmol/L glutamine. […]
LPS stimulation. […] At 16 hours after LPS stimulation, levels of HMGB1 in the culture medium were determined as previously described (Chen et al. 2004; Rendon-Mitchell et al. 2003; Wang et al. 1999).
HMGB1 western blotting analysis. The levels of HMGB1 in the culture medium or serum were determined by western blotting analysis as previously described (Chen et al. 2004; Rendon-Mitchell et al. 2003; Wang et al. 1999). The relative band intensity was quantified using NIH image 1.59 software to determine HMGB1 levels with reference to standard curves generated with purified HMGB1.

## Cc1c(S(=O)(=O)[O-])oc2c1C(=O)C(=O)c1c-2ccc2c1CCCC2(C)C.[Na+] [TSNIIA-SS, tanshinone IIA sodium sulfonate]
HMGB1 [1]; 100 μM
  effect on LPS-induced HMGB1 release: completely abrogated
HMGB1 [1]; RAW 264.7 cells, 16 h after LPS, western blot, estimated, read-out: estimated IC50 for LPS-induced HMGB1 release
  IC50: < 5 µM
HMGB1 [1]; added 2 to 6 h after LPS, 25 or 50 μM, HMGB1 at 16 h
  inhibition of HMGB1 release on delayed addition: significant inhibition was retained
HMGB1 [2]
  attenuation of HMGB1-induced release of TNF: 50-60%
  attenuation of HMGB1-induced release of nitric oxide: 90-95%
62 cytokines; 100 μM, cytokine array
  attenuation of LPS-induced release of IL-1α: 50±7%
  attenuation of LPS-induced release of IL-12p70: 45±5%
  attenuation of LPS-induced release of MCP-5: 25±5%
  attenuation of LPS-induced release of platelet factor 4 (PF-4): 35±6%
62 cytokines; 100 μM, RAW 264.7 cells or primary peritoneal macrophages
  effect on release of most cytokines, including IL-6, IL-12p40/p70, KC, MCP-1, MIP-1α, MIP-1γ, MIP-2 and TNF: did not suppress
62 cytokines; at concentrations that completely abrogate LPS-induced HMGB1 release
  number of other cytokines whose release is not affected: 58 out of 62
[3]; 15 mg/kg, CLP group 378.3±25.1, n=6, p<0.05
  heart rate: 334.1±25.8 beats/minutes
[3]; FIG. 8A
  total peripheral vascular resistance: dose-dependently reduced
[3]; FIG. 8B
  cardiac stroke volume: significantly increased
[3]; FIG. 8C
  cardiac output: significantly increased
[3]; CLP group 106.1±4.7, n=6, p>0.05
  mean arterial blood pressure: 96.4±8.7 mm Hg
HMGB1 [4]
  effect on LPS-induced HMGB1 release: effectively inhibited
